Assay results reported in ChEMBL document CHEMBL6109147, “Discovery of Potent STING Inhibitors Bearing a Difluorobenzodioxol Structural Motif as Potent Anti-Inflammatory Agents” (J Med Chem, 2025).
The source made the active and inactive calls. The calls are words filed in the database; no cut-off is given here.

Tests used:
[1] = Volume of distribution at steady state in Sprague-Dawley rat at 1 mg/kg, iv; assay type: ADME, organism-based; conditions: Sprague-Dawley, in vivo, read-out: Vdss
[2] = Half life in Sprague-Dawley rat at 3 mg/kg, po; assay type: ADME, organism-based; conditions: in vivo
[3] = AUC (0 to infinity) in Sprague-Dawley rat at 3 mg/kg, po; assay type: ADME, organism-based; conditions: in vivo
[4] = Oral bioavailability in Sprague-Dawley rat at 3 mg/kg; assay type: ADME, organism-based; conditions: in vivo
[5] = Metabolic stability in human liver microsomes assessed as microsomal intrinsic clearance; assay type: ADME, Microsome; conditions: read-out: CLH
[6] = Metabolic stability in rat liver microsomes assessed as liver intrinsic clearance; assay type: ADME, Microsome
[7] = biological target: Stimulator of interferon genes protein (Homo sapiens) (UniProt Q86WV6); test: Inhibition of STING in human THP1-Dual cells assessed as inhibition of MSA-2 induced ISG signalling measured after 1 hr incubation followed by stimulated with MSA-2 by Western blotting analysis; assay type: cell-based
Sequence of Stimulator of interferon genes protein (Homo sapiens) (Q86WV6 whole entry): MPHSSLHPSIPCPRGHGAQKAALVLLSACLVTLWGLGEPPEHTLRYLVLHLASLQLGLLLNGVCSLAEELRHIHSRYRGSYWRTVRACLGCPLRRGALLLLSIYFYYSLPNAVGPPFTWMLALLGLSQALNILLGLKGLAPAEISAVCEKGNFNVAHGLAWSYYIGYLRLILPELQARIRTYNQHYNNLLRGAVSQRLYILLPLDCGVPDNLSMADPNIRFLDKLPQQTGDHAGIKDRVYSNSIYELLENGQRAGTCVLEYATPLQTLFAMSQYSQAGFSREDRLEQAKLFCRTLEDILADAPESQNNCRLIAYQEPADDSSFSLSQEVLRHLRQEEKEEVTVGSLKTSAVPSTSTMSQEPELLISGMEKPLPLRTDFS

[8] = biological target: Stimulator of interferon genes protein (Homo sapiens) (UniProt Q86WV6); test: Inhibition of STING downstream signalling in human THP1-Dual cells assessed as inhibition of MSA-2 induced IFN-beta secretion at 0.3 to 3 uM pre-treated for 1 hr followed by stimulated with MSA-2 measured after 24 hrs by ELISA; assay type: cell-based; conditions: dose 0.3-3 µM, time 25.0 hrs
[9] = biological target: Stimulator of interferon genes protein (Homo sapiens) (UniProt Q86WV6); test: Inhibition of STING downstream signalling in human THP1-Dual cells assessed as inhibition of MSA-2 induced IP-10 secretion at 0.3 to 3 uM pre-treated for 1 hr followed by stimulated with MSA-2 measured after 24 hrs by ELISA; assay type: cell-based; conditions: dose 0.3-3 µM, time 25.0 hrs
[10] = biological target: Stimulator of interferon genes protein (Homo sapiens) (UniProt Q86WV6); test: Inhibition of STING downstream signalling in human THP1-Dual cells assessed as inhibition of MSA-2 induced IFN-beta mRNA expression at 0.3 to 3 uM pre-treated for 1 hr followed by stimulated with MSA-2 measured after 4 hrs by real-time PCR analysis; assay type: cell-based; conditions: dose 0.3-3 µM, time 5.0 hrs
[11] = biological target: Stimulator of interferon genes protein (Homo sapiens) (UniProt Q86WV6); test: Inhibition of STING downstream signalling in human THP1-Dual cells assessed as inhibition of MSA-2 induced IP-10 mRNA expression at 0.3 to 3 uM pre-treated for 1 hr followed by stimulated with MSA-2 measured after 4 hrs by real-time PCR analysis; assay type: cell-based; conditions: dose 0.3-3 µM, time 5.0 hrs
[12] = biological target: Stimulator of interferon genes protein (Homo sapiens) (UniProt Q86WV6); test: Inhibition of STING downstream signalling in human THP1-Dual cells assessed as inhibition of cGAMP induced IFN-beta secretion at 0.3 to 3 uM pre-treated for 1 hr followed by stimulated with cGAMP measured after 24 hrs by ELISA; assay type: cell-based; conditions: dose 0.3-3 µM, time 25.0 hrs
[13] = biological target: Stimulator of interferon genes protein (Homo sapiens) (UniProt Q86WV6); test: Inhibition of STING downstream signalling in human THP1-Dual cells assessed as inhibition of cGAMP induced IFN-beta mRNA expression at 0.3 to 3 uM pre-treated for 1 hr followed by stimulated with cGAMP measured after 4 hrs by real-time PCR analysis; assay type: cell-based; conditions: dose 0.3-3 µM, time 5.0 hrs
[14] = Cytotoxicity against mouse RAW-Lucia ISG cells assessed as cell viability measured after 24 hrs by CCK8 assay; assay type: toxicity, cell-based
[15] = biological target: T1, Stimulator of interferon genes protein (Mus musculus) (UniProt Q3TBT3); test: Inhibition of STING downstream signalling in mouse RAW264.7 cells assessed as inhibition of DMAAA induced Isg15 mRNA level pre-treated for 1 hr followed by stimulated with DMAAA measured after 4 hrs by real-time PCR analysis; assay type: cell-based; conditions: dose 0.3-3 µM, time 5.0 hrs
T1 sequence (whole entry): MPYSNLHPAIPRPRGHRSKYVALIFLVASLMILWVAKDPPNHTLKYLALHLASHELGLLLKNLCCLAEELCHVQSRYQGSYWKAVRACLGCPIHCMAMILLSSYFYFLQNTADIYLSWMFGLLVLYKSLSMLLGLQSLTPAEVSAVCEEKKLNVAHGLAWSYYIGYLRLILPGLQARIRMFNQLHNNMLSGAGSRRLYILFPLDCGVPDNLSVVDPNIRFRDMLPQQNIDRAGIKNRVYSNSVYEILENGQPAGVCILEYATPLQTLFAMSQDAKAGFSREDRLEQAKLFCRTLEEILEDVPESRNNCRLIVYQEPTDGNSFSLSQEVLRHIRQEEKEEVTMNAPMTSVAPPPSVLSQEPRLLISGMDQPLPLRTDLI

[16] = biological target: T1, Stimulator of interferon genes protein (Mus musculus); test: Inhibition of STING downstream signalling in mouse RAW264.7 cells assessed as inhibition of DMAAA induced Isg56 mRNA level pre-treated for 1 hr followed by stimulated with DMAAA measured after 4 hrs by real-time PCR analysis; assay type: cell-based; conditions: dose 0.3-3 µM, time 5.0 hrs
Mus musculus [17] = test: Anti-inflammatory activity against MSA-2 induced C57BL/6 mouse inflammation model assessed as inhibition of MSA-2 induced IL-6 level in plasma at 10 mg/kg, ip pre-treated for 1 hr followed by stimulated with MSA-2 for 4 hrs by ELISA; assay type: functional, organism-based; conditions: time 5.0 hrs
Mus musculus [18] = test: Anti-inflammatory activity against MSA-2 induced C57BL/6 mouse inflammation model assessed as inhibition of MSA-2 induced IP-10 level in plasma at 10 mg/kg, ip pre-treated for 1 hr followed by stimulated with MSA-2 for 4 hrs by ELISA; assay type: functional, organism-based; conditions: time 5.0 hrs
Mus musculus [19] = test: Anti-inflammatory activity against MSA-2 induced C57BL/6 mouse inflammation model assessed as inhibition of MSA-2 induced IL-6 level in kidney at 10 mg/kg, ip pre-treated for 1 hr followed by stimulated with MSA-2 for 4 hrs by ELISA; assay type: functional, organism-based; conditions: time 5.0 hrs
Mus musculus [20] = test: Anti-inflammatory activity against MSA-2 induced C57BL/6 mouse inflammation model assessed as inhibition of MSA-2 induced Cxcl-10 mRNA expression in kidney at 10 mg/kg, ip pre-treated for 1 hr followed by stimulated with MSA-2 for 4 hrs by real-time PCR analysis; assay type: functional, organism-based; conditions: time 5.0 hrs
Mus musculus [21] = test: Anti-inflammatory activity against Cisplatin induced C57BL/6 mouse kidney inflammation model assessed as prevention of Cisplatin induced glomerular injury at 5 mg/kg, ip treated for 3 days; assay type: functional, organism-based; conditions: time 3.0 day
Mus musculus [22] = test: Anti-inflammatory activity against Cisplatin induced C57BL/6 mouse kidney inflammation model assessed as suppression of Cisplatin induced Cxcl-10 mRNA level in kidney at 5 mg/kg, ip treated for 3 days by real-time PCR analysis; assay type: functional, organism-based; conditions: time 3.0 day
Mus musculus [23] = test: Anti-inflammatory activity against Cisplatin induced C57BL/6 STING-KO mouse kidney inflammation model assessed as prevention of Cisplatin induced glomerular injury at 5 mg/kg, ip treated for 3 days; assay type: functional, organism-based; conditions: time 3.0 day
Mus musculus [24] = test: Effect on Isg15 expression in Cisplatin induced C57BL/6 STING-KO mouse kidney inflammation model at 5 mg/kg, ip treated for 3 days by real-time PCR analysis; assay type: functional, organism-based; conditions: time 3.0 day
Mus musculus [25] = test: Anti-inflammatory activity in TREX1 D18N mouse model assessed as reduction in Isg56 mRNA expression in kidney at 10 mg/kg, ip measured after 2 weeks; assay type: functional, organism-based
Mus musculus [26] = test: Anti-inflammatory activity in TREX1 D18N mouse model assessed as reduction in Cxcl10 mRNA expression in heart at 10 mg/kg, ip measured after 2 weeks; assay type: functional, organism-based
Mus musculus [27] = test: Anti-inflammatory activity in TREX1 D18N mouse model assessed as reduction in Isg56 mRNA expression in heart at 10 mg/kg, ip measured after 2 weeks; assay type: functional, organism-based
Mus musculus [28] = test: Anti-inflammatory activity in TREX1 D18N mouse model assessed as reduction in Ifn-beta mRNA expression in heart at 10 mg/kg, ip measured after 2 weeks; assay type: functional, organism-based

Vd [1]: 2.38 L/kg | half-life [2]: 3.27 h | AUC(0-inf) [3]: 74.8 ng·h/mL | bioavailability [4]: 12.7% | microsomal CLint [5]: 41 µL/min/mg | CLH [6]: 64.8 µL/min/mg | inhibition [7]: Dose-dependent-effect | inhibition [8]: Active | inhibition [9]: Active | inhibition [10]: Active | inhibition [11]: Active | inhibition [12]: Active | inhibition [13]: Active | inhibition [15]: Dose-dependent-effect | inhibition [16]: Dose-dependent-effect
Structure (SMILES): N#CC/C=C/c1ccc2[nH]cc(NC(=O)Nc3ccc4c(c3)OC(F)(F)O4)c2c1
Activity [14]: Non-toxic | inhibition (Mus musculus [17]): Active | inhibition (Mus musculus [18]): Active | inhibition (Mus musculus [19]): Active | inhibition (Mus musculus [20]): Active | inhibition (Mus musculus [21]): inactive | inhibition (Mus musculus [22]): Active | Activity (Mus musculus [23]): inactive | Activity (Mus musculus [24]): inactive | Activity (Mus musculus [25]): Active | Activity (Mus musculus [26]): Active | Activity (Mus musculus [27]): Active | Activity (Mus musculus [28]): Active
